Reference: patent US20250332173A1, “COMPOUNDS AND METHODS FOR MODULATING NUCLEIC ACID SPLICING” (REMIX THERAPEUTICS INC., priority 2021, published 2025)
Where a name gives a salt, the structure may show the parent alone. Read-outs that look alike come from different tables or passages of the source.

Columns and labels:
Target C = assay: HiBiT protein abundance assay, Target C HiBiT K562 cell line; assay type: cell-based; settings: Homo sapiens; HiBiT lytic detection, modified K562 cells, 24 hours, top dose 10 μM; read-out: Effect on protein abundance, Target C (IC50)
Description: • Promega Nano-Glo HiBiT Lytic Detection System (cat #N3030) • Corning 384-well TC-treated microplates (cat #3570) • Synthego Engineered Cells Knock-In Clones
Cells were maintained in IMDM with 10% FBS. Before the assay, cells were diluted with […] growth media (IMDM+[…] media) and were seeded in a 384-well plate at a density of 10,000 cells/well (for each cell line listed in Table 5). Each compound was prepared as a 10-point 3-fold serial dilution in DMSO with the top dose at a final concentration of 10 μM in the well. Unmodified K562 cells were added at the previously specified density with DMSO to serve as an assay baseline and positive control (PC) and DMSO only with the respective modified cell lines was added to the negative control (NC) columns. Final DMSO concentration was kept at or below 0.25%. Treated cell plates were placed in an incubator at 37° C. with […] for 24 hours. After 24 hours, 25 μL of Complete HiBit Lytic reagent was added to each well at room temperature (e.g. one plate requiring 10 mL Lytic Buffer, 100 μL LgBiT Protein, 200 μL Lytic Substrate), shaken for 5 minutes at 600 RPM, then left to sit for 10 minutes for signal to stabilize before reading on a Spark Cyto plate reader (Tecan) with a 500 ms measurement time.
To determine compound effects on protein abundance of each target in Table 5, the percent response for each respective cell line was calculated at each compound concentration as follows:
For the normalized response at each concentration, a four-parameter logistical regression was fit to the data and the response was interpolated at the […] to determine a concentration for protein abundance at […] the untreated control.

MYB mRNA = assay: RT-qPCR splicing assay, MYB canonical junction (CJ) and alternative junction (AJ) mRNA; assay type: cell-based, human; settings: Homo sapiens; for AC50: increase in MYB alternative junction (AJ) mRNA, read-out: MYB AJ AC50
Summary of the method: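 A673 or K562 cells were treated for 24 h at 37 °C with an 11-point 3-fold compound dilution series (top final concentration 10 uM, DMSO ≤0.25%). After lysis, one-step TaqMan RT-qPCR quantified junction transcripts, normalized to PPIA for A673 or to GAPDH/GUSB for K562.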

[1] = Table 5 panel, canonical junction qPCR, compound concentration having 50% response in CJ decrease, read-out: MYB IC50 (decrease in CJ mRNA levels)
[2] = decrease in MYB canonical junction (CJ) mRNA, RT-qPCR, read-out: MYB CJ IC50

Cc1cn2nc(-c3ccn4c(=O)c(C5CCNCC5)ccc4c3)cc(C)c2n1 [Compound 1181]
IC50 (Target C): < 100 nM | IC50 (MYB mRNA; [1]): < 100 nM | IC50 (MYB mRNA; [2]): < 100 nM | AC50 (MYB mRNA; RT-qPCR): < 100 nM

Cc1cn2nc(-c3ccn4c(=O)c(C5=CCNCC5)ncc4c3)cc(C)c2n1 [Compound 1182]
IC50 (Target C): 100 to 1000 nM | IC50 (MYB mRNA; [1]): 100 to 1000 nM | IC50 (MYB mRNA; [2]): 100 to 1000 nM | AC50 (MYB mRNA; RT-qPCR): 100 to 1000 nM

CNC1CCN(c2ccc3cc(-c4cc(C)c5nc(C)cn5n4)ccn3c2=O)C1 (stereo not drawn) [Compound 1158]
IC50 (Target C): 1000 to 10000 nM | IC50 (MYB mRNA; [1]): 100 to 1000 nM | IC50 (MYB mRNA; [2]): 100 to 1000 nM | AC50 (MYB mRNA; RT-qPCR): 100 to 1000 nM

CNC(=O)c1cc(-c2ccc3c(=O)n(C4CCNCC4)ccc3c2)nn2cc(C)nc12 [Compound 518, N, 2-dimethyl-6-[1-oxo-2-(4-piperidyl)-6-isoquinolyl]imidazo[1,2-b]pyridazine-8-carboxamide]
IC50 (MYB mRNA; [1]): 1000 to 10000 nM | IC50 (MYB mRNA; [2]): > 10000 nM | AC50 (MYB mRNA; RT-qPCR): 1000 to 10000 nM

Cc1cn2nc(-c3ccc4c(=O)n(C5CCNCC5)ccc4c3)cc(Oc3cccc(F)c3)c2n1 [Compound 545, 6-[8-(3-fluorophenoxy)-2-methyl-imidazo[1,2-b]pyridazin-6-yl]-2-(4-piperidyl)isoquinolin-1-one; hydrochloride]
IC50 (MYB mRNA; [1]): < 100 nM | IC50 (MYB mRNA; [2]): < 100 nM | AC50 (MYB mRNA; RT-qPCR): < 100 nM

Cc1cn2nc(-c3ccc4c(=O)n(C5CCNCC5)ccc4c3)cc(-n3ccccc3=O)c2n1 [Compound 552, 6-[2-methyl-8-(2-oxo-1-pyridyl)imidazo[1,2-b]pyridazin-6-yl]-2-(4-piperidyl)isoquinolin-1-one]
IC50 (MYB mRNA; [1]): > 10000 nM | IC50 (MYB mRNA; [2]): > 10000 nM | AC50 (MYB mRNA; RT-qPCR): > 10000 nM

Cc1cn2cc(-c3cc(F)c4c(=O)n(C5CCNCC5)cnc4c3)cc(C#N)c2n1 [Compound 588]
IC50 (MYB mRNA; [1]): 100 to 1000 nM | IC50 (MYB mRNA; [2]): 1000 to 10000 nM | AC50 (MYB mRNA; RT-qPCR): 100 to 1000 nM

COc1cccc(Oc2cc(-c3ccc4c(=O)n(C5CCNCC5)ccc4c3)nn3cc(C)nc23)c1 [Compound 547, 6-[8-(3-methoxyphenoxy)-2-methyl-imidazo[1,2-b]pyridazin-6-yl]-2-(4 piperidyl) isoquinolin-1-one]
IC50 (MYB mRNA; [1]): < 100 nM | IC50 (MYB mRNA; [2]): < 100 nM | AC50 (MYB mRNA; RT-qPCR): < 100 nM

Cc1cn2cc(-c3ccc4c(=O)n(C5CCNCC5)ccc4c3)cc(C#N)c2n1 [Compound 560, 2-methyl-6-[1-oxo-2-(piperidin-4-yl)isoquinolin-6-yl]imidazo[1,2-a]pyridine-8-carbonitrile]
IC50 (MYB mRNA; [1]): 100 to 1000 nM | IC50 (MYB mRNA; [2]): 100 to 1000 nM | AC50 (MYB mRNA; RT-qPCR): 100 to 1000 nM

Cc1cn2nc(-c3ccc4c(=O)n(C5CCNCC5)ccc4c3)cc(Oc3ccccc3F)c2n1 [Compound 544, 6-[8-(2-fluorophenoxy)-2-methyl-imidazo[1,2-b]pyridazin-6-yl]-2-(4-piperidyl) isoquinolin-1-one; hydrochloride]
IC50 (MYB mRNA; [1]): 100 to 1000 nM | IC50 (MYB mRNA; [2]): < 100 nM | AC50 (MYB mRNA; RT-qPCR): 100 to 1000 nM

Cc1cn2nc(-c3cc(O)c4c(=O)n(C5CCN(CCF)CC5)ncc4c3)cc(C)c2n1 [Compound 553]
IC50 (MYB mRNA; [1]): 100 to 1000 nM | IC50 (MYB mRNA; [2]): 100 to 1000 nM | AC50 (MYB mRNA; RT-qPCR): 100 to 1000 nM

Cc1cn2nc(-c3ccc4c(=O)n(C5CCNCC5)ccc4c3)cc(C(=O)O)c2n1 [Compound 516, 2-methyl-6-[1-oxo-2-(4-piperidyl)-6-isoquinolyl]imidazo[1,2-b]pyridazine-8-carboxylic acid]
IC50 (MYB mRNA; [1]): 1000 to 10000 nM | IC50 (MYB mRNA; [2]): 1000 to 10000 nM | AC50 (MYB mRNA; RT-qPCR): 1000 to 10000 nM

Cc1cn2nc(-c3cc(O)c4c(=O)n(C5CCN(C)CC5)ncc4c3)cc(C)c2n1 [Compound 543]
IC50 (MYB mRNA; [1]): 100 to 1000 nM | IC50 (MYB mRNA; [2]): 100 to 1000 nM | AC50 (MYB mRNA; RT-qPCR): 100 to 1000 nM

Cc1cn2cc(-c3cc(F)c4c(=O)n([C@@H]5C[C@@H](C)N[C@@H](C)C5)ccc4c3)cc(F)c2n1 [Compound 642, 2-[(2S,6R)-2,6-dimethyl-4-piperidyl]-8-fluoro-6-(8-fluoro-2-methyl-imidazo[1,2-a]pyridin-6-yl)isoquinolin-1-one]
IC50 (MYB mRNA; [1]): 100 to 1000 nM | IC50 (MYB mRNA; [2]): 100 to 1000 nM | AC50 (MYB mRNA; RT-qPCR): 100 to 1000 nM

COC(=O)Cc1cc(-c2ccc3c(=O)n(C4CCNCC4)ccc3c2)nn2cc(C)nc12 [Compound 527]
IC50 (MYB mRNA; [1]): 100 to 1000 nM | IC50 (MYB mRNA; [2]): 100 to 1000 nM | AC50 (MYB mRNA; RT-qPCR): 100 to 1000 nM

Cc1cn2cc(-c3cc(F)c4c(=O)n(C5CC(C)NC(C)C5)ccc4c3)cc(F)c2n1 (stereo not drawn) [Compound 651]
IC50 (MYB mRNA; [1]): < 100 nM | IC50 (MYB mRNA; [2]): < 100 nM | AC50 (MYB mRNA; RT-qPCR): < 100 nM
